Reference: ChEMBL document CHEMBL3763136, “Synthesis and neuroprotective activity of dictyoquinazol A and analogues” (Bioorg Med Chem, 2016)
Calls of active or inactive are those of the source. The rule behind the calls is not given here.

Legend:
[1] = system: SH-SY5Y; assay: Cytotoxicity against human SH-SY5Y cells assessed as cell viability above 10 uM after 24 hrs by MTT assay; type: cell-based
[2] = system: SH-SY5Y; assay: Cytotoxicity against human SH-SY5Y cells assessed as cell viability up to 3 uM after 24 hrs by MTT assay; type: cell-based
[3] = system: SH-SY5Y; assay: Neuroprotective activity against H2O2-induced oxidative stress in human SH-SY5Y cells assessed as increase in cell viability after 20 hrs by MTT assay; type: functional, cell-based
[4] = system: SH-SY5Y; assay: Neuroprotective activity against staurosporine-induced apoptosis in human SH-SY5Y cells assessed as increase in cell viability after 20 hrs by MTT assay; type: functional, cell-based
[5] = system: SH-SY5Y; assay: Neuroprotective activity against L-glutamate-induced excitotoxicity in human SH-SY5Y cells assessed as increase in cell viability after 20 hrs by MTT assay; type: functional, cell-based
[6] = system: SH-SY5Y; assay: Cytotoxicity against human SH-SY5Y cells assessed as cell viability at 0.3 to 3 uM after 24 hrs by MTT assay; type: cell-based
[7] = system: SH-SY5Y; assay: Neuroprotective activity against staurosporine-induced apoptosis in human SH-SY5Y cells assessed as increase in cell viability at 0.3 uM after 20 hrs by MTT assay; type: functional
[8] = system: SH-SY5Y; assay: Neuroprotective activity against H2O2-induced oxidative stress in human SH-SY5Y cells assessed as increase in cell viability at 0.6 to 1.2 uM after 20 hrs by MTT assay; type: functional
[9] = system: SH-SY5Y; assay: Neuroprotective activity against L-glutamate-induced excitotoxicity in human SH-SY5Y cells assessed as increase in cell viability at 0.3 uM after 20 hrs by MTT assay; type: functional
[10] = system: SH-SY5Y; assay: Neuroprotective activity against L-glutamate-induced excitotoxicity in human SH-SY5Y cells assessed as increase in cell viability at 0.6 uM after 20 hrs by MTT assay; type: functional

SMILES	Activity [1]	Activity [2]	Activity [3]	Activity [4]	Activity [5]	Activity [6]	Activity [7]	%max [8]	%max [9]	Activity [10]
COc1ccc(-n2cnc3ccc(OC)cc3c2=O)c(COC=O)c1	Toxic	Non-toxic	–	–	–	–	–	–	–	–
COc1ccc(-n2c(=S)[nH]c3ccc(OC)cc3c2=O)c(CO)c1	–	–	Active	inactive	Active	Non-toxic	–	–	–	–
COC(=O)c1cc(OC)ccc1-n1cnc2ccc(OC)cc2c1=O	–	–	Active	Active	Active	Non-toxic	–	–	–	–
COc1ccc(-n2cnc3ccc(OC)cc3c2=O)c(CO)c1 [DICTYOQUINAZOLE A]	Toxic	Non-toxic	–	–	–	–	41%	22%	10%	–
COc1ccc(-n2cnc3ccc(OC)cc3c2=O)c(CF)c1	Toxic	Non-toxic	inactive	Active	Active	–	–	–	–	–
COc1ccc(-n2c(=O)[nH]c3ccc(OC)cc3c2=O)c(CO)c1	–	–	Active	Active	Active	Non-toxic	–	–	–	–
COc1ccc(-n2cnc3ccc(OC)cc3c2=O)cc1	–	–	Active	Active	Active	Non-toxic	–	–	–	–
O=c1c2ccccc2ncn1-c1ccccc1CO	Toxic	Non-toxic	inactive	Active	–	–	–	–	–	35%
